#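 Interpolation was linear, between the two tested concentrations surrounding the appropriate level; five concentrations were tested over 48 hours in 96-well plates. At the TGI there is no net growth.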
# Legend:
# Assay in all cases: growth of human tumour cells (NCI), 48 h
# BT-549 breast = test system: BT-549 breast
# HCT-116 colon = test system: HCT-116 colon
# KM12 colon = test system: KM12 colon
# SR leukemia = test system: SR leukemia
# 786-0 renal = test system: 786-0 renal
# TK-10 renal = test system: TK-10 renal
# SF-539 CNS = test system: SF-539 CNS
# SNB-19 CNS = test system: SNB-19 CNS
# NCI/ADR-RES ovarian = test system: NCI/ADR-RES ovarian
# HT29 colon = test system: HT29 colon
# ACHN renal = test system: ACHN renal
# UO-31 renal = test system: UO-31 renal
# UACC-257 melanoma = test system: UACC-257 melanoma
# LOX IMVI melanoma = test system: LOX IMVI melanoma
# HOP-92 NSCLC = test system: HOP-92 NSCLC
# SW-620 colon = test system: SW-620 colon
# SF-268 CNS = test system: SF-268 CNS
# SK-OV-3 ovarian = test system: SK-OV-3 ovarian
# NCI-H522 lung = test system: NCI-H522 lung
# OVCAR-8 ovarian = test system: OVCAR-8 ovarian
# U251 CNS = test system: U251 CNS
# CCRF-CEM leukemia = test system: CCRF-CEM leukemia
# PC-3 prostate = test system: PC-3 prostate
# HS 578T breast = test system: HS 578T breast
# OVCAR-3 ovarian = test system: OVCAR-3 ovarian
# HCC-2998 colon = test system: HCC-2998 colon
# MDA-MB-231 breast = test system: MDA-MB-231 breast
# NCI-H460 lung = test system: NCI-H460 lung
# CAKI-1 renal = test system: CAKI-1 renal
# SF-295 CNS = test system: SF-295 CNS
# DU-145 prostate = test system: DU-145 prostate
# SN12C renal = test system: SN12C renal
# SNB-75 CNS = test system: SNB-75 CNS
# EKVX NSCLC = test system: EKVX NSCLC
# SK-MEL-2 melanoma = test system: SK-MEL-2 melanoma
# HL-60(TB) leukemia = test system: HL-60(TB) leukemia
# RXF 393 renal = test system: RXF 393 renal
# NCI-H23 lung = test system: NCI-H23 lung
# A498 renal = test system: A498 renal
# MCF7 breast = test system: MCF7 breast
# MDA-N = test system: MDA-N
# MALME-3M melanoma = test system: MALME-3M melanoma
# M14 melanoma = test system: M14 melanoma
# A549 NSCLC = test system: A549 NSCLC
# OVCAR-4 ovarian = test system: OVCAR-4 ovarian
# SK-MEL-5 melanoma = test system: SK-MEL-5 melanoma
# RPMI-8226 leukemia = test system: RPMI-8226 leukemia
# HOP-62 NSCLC = test system: HOP-62 NSCLC
# OVCAR-5 ovarian = test system: OVCAR-5 ovarian
# K-562 leukemia = test system: K-562 leukemia
# HCT-15 colon = test system: HCT-15 colon
# T-47D breast = test system: T-47D breast
# SK-MEL-28 melanoma = test system: SK-MEL-28 melanoma
# COLO 205 colon = test system: COLO 205 colon
# MOLT-4 leukemia = test system: MOLT-4 leukemia
# NCI-H226 lung = test system: NCI-H226 lung
# IGROV1 ovarian = test system: IGROV1 ovarian
# UACC-62 melanoma = test system: UACC-62 melanoma
# MDA-MB-435 = test system: MDA-MB-435
smiles,measurement,setting,value
CN(CCNC(=O)c1c[nH]c2c1ccc1ccccc12)CCNC(=O)c1c[nH]c2c1ccc1ccccc12,TGI,BT-549 breast,26.9 µM
same,TGI,HCT-116 colon,3.39 µM
same,TGI,KM12 colon,3.29 µM
same,TGI,SR leukemia,4.69 µM
same,TGI,786-0 renal,2.87 µM
same,TGI,TK-10 renal,9.75 µM
same,TGI,SF-539 CNS,3.39 µM
same,TGI,SNB-19 CNS,6.23 µM
same,TGI,NCI/ADR-RES ovarian,13.1 µM
same,TGI,HT29 colon,3.5 µM
same,TGI,ACHN renal,4.72 µM
same,TGI,UO-31 renal,2.67 µM
same,TGI,UACC-257 melanoma,3.94 µM
same,TGI,LOX IMVI melanoma,3.09 µM
same,TGI,HOP-92 NSCLC,7.2 µM
same,TGI,SW-620 colon,3.08 µM
same,TGI,SF-268 CNS,11.6 µM
same,TGI,SK-OV-3 ovarian,18.4 µM
same,TGI,NCI-H522 lung,3.45 µM
same,TGI,OVCAR-8 ovarian,3.91 µM
same,TGI,U251 CNS,4.03 µM
same,TGI,CCRF-CEM leukemia,3.86 µM
same,TGI,PC-3 prostate,6.68 µM
same,TGI,HS 578T breast,10.5 µM
same,TGI,OVCAR-3 ovarian,17.3 µM
same,TGI,HCC-2998 colon,2.87 µM
same,TGI,MDA-MB-231 breast,3.2 µM
same,TGI,NCI-H460 lung,4.13 µM
same,TGI,CAKI-1 renal,10.1 µM
same,TGI,SF-295 CNS,4.79 µM
same,TGI,DU-145 prostate,5.06 µM
same,TGI,SN12C renal,11.7 µM
same,TGI,SNB-75 CNS,3.38 µM
same,TGI,EKVX NSCLC,11.1 µM
same,TGI,SK-MEL-2 melanoma,3.91 µM
same,TGI,HL-60(TB) leukemia,4.29 µM
same,TGI,RXF 393 renal,2.62 µM
same,TGI,NCI-H23 lung,11.3 µM
same,TGI,A498 renal,8.47 µM
same,TGI,MCF7 breast,2.74 µM
same,TGI,MDA-N,5.63 µM
same,TGI,MALME-3M melanoma,23 µM
same,TGI,M14 melanoma,3.52 µM
same,TGI,A549 NSCLC,5.83 µM
same,TGI,OVCAR-4 ovarian,11.7 µM
same,TGI,SK-MEL-5 melanoma,21.1 µM
same,TGI,RPMI-8226 leukemia,15.6 µM
same,TGI,HOP-62 NSCLC,6.03 µM
same,TGI,OVCAR-5 ovarian,12.3 µM
same,TGI,K-562 leukemia,3.31 µM
same,TGI,HCT-15 colon,3.83 µM
same,TGI,T-47D breast,2.7 µM
same,TGI,SK-MEL-28 melanoma,4.16 µM
same,TGI,COLO 205 colon,3.24 µM
same,TGI,MOLT-4 leukemia,4.3 µM
same,TGI,NCI-H226 lung,40.5 µM
same,TGI,IGROV1 ovarian,3.08 µM
same,TGI,UACC-62 melanoma,3.46 µM
same,TGI,MDA-MB-435,3.47 µM
COc1cc2cc(C(=O)N3CC(CCl)c4ccc([N+](C)(C)Cc5ccc([N+](=O)[O-])cc5)cc43)[nH]c2c(OC)c1OC (configuration not stated),TGI,BT-549 breast,35.6 µM
same,TGI,KM12 colon,5.46 µM
same,TGI,SR leukemia,2.31 µM
same,TGI,786-0 renal,6.54 µM
same,TGI,SF-539 CNS,5.64 µM
same,TGI,SNB-19 CNS,60 µM
same,TGI,NCI/ADR-RES ovarian,4.17 µM
same,TGI,HT29 colon,5.83 µM
same,TGI,ACHN renal,7.12 µM
same,TGI,HOP-92 NSCLC,6.58 µM
same,TGI,SW-620 colon,6.18 µM
same,TGI,SF-268 CNS,56.7 µM
same,TGI,SK-OV-3 ovarian,9.64 µM
same,TGI,NCI-H522 lung,3.47 µM
same,TGI,OVCAR-8 ovarian,4.69 µM
same,TGI,U251 CNS,7.36 µM
same,TGI,CCRF-CEM leukemia,7.01 µM
same,TGI,PC-3 prostate,16.3 µM
same,TGI,HS 578T breast,47 µM
same,TGI,OVCAR-3 ovarian,7.16 µM
same,TGI,HCC-2998 colon,2.95 µM
same,TGI,MDA-MB-231 breast,46.6 µM
same,TGI,NCI-H460 lung,4 µM
same,TGI,CAKI-1 renal,5.64 µM
same,TGI,SF-295 CNS,15.3 µM
same,TGI,DU-145 prostate,10.8 µM
same,TGI,SN12C renal,31 µM
same,TGI,SNB-75 CNS,11.1 µM
same,TGI,EKVX NSCLC,29.3 µM
same,TGI,SK-MEL-2 melanoma,5.26 µM
same,TGI,HL-60(TB) leukemia,5.55 µM
same,TGI,RXF 393 renal,3.09 µM
same,TGI,NCI-H23 lung,3.52 µM
same,TGI,A498 renal,3.5 µM
same,TGI,MCF7 breast,> 100 µM
same,TGI,MDA-N,16.5 µM
same,TGI,MALME-3M melanoma,7.42 µM
same,TGI,M14 melanoma,40.5 µM
same,TGI,A549 NSCLC,> 100 µM
same,TGI,OVCAR-4 ovarian,13.6 µM
same,TGI,SK-MEL-5 melanoma,3.31 µM
same,TGI,RPMI-8226 leukemia,4.62 µM
same,TGI,HOP-62 NSCLC,> 100 µM
same,TGI,OVCAR-5 ovarian,> 100 µM
same,TGI,K-562 leukemia,5.61 µM
same,TGI,HCT-15 colon,31 µM
same,TGI,T-47D breast,66.2 µM
same,TGI,SK-MEL-28 melanoma,26.5 µM
same,TGI,COLO 205 colon,14.2 µM
same,TGI,MOLT-4 leukemia,6.44 µM
same,TGI,NCI-H226 lung,15.4 µM
same,TGI,UACC-62 melanoma,4.69 µM
same,TGI,MDA-MB-435,24 µM

# Reference: PubChem BioAssay (NCI)
